Assay results reported in US5977065A, “Bacterial nitroreductase for the reduction of CB1954 and analogues thereof to a cytotoxic form” (Cancer Research Campaign Technology Limited, priority 1991, dated 1999).
*1 amine or outer side, *2 acyl side, *3 side chain or, on linkers, in order; H or OH if unused. Where a SMILES comes first, the peptide text is derived from it. Bridges are numbered along the chain shown (N, C = ends). Roman numbers before positions name the chains, in order. [ ]: non-standard residue; d: D form. Actinocin(9to1) = Cc1c2oc3c(C)ccc(C(=O)[*:1])c3nc-2c(C(=O)[*:2])c(N)c1=O; NMeV = CN[C@H](C(=O)O)C(C)C; Sar = CNCC(=O)O

Legend:
E. coli nitroreductase [1] = molecular target: T1, E. coli nitroreductase (Escherichia coli, UniProt P38489); experiment: Substrate specificity: relative rate of NADH oxidation by HPLC (Table 5); type: biochemical; conditions: relative to CB 1954; 37° C. in air, NADH 500 μM, substrate 100 μM
T1 construct: endogenous in cells; host or cells: E. coli B cell paste; endogenous enzyme purified by Phenyl-Sepharose and Q-Sepharose chromatography, not recombinant
Protocol: The ability of the E. coli nitroreductase of the invention to reduce nitro-compounds other than CB 1954 was determined by HPLC by following the decrease in the peak area of NADH resulting from its oxidation. The experiments were carried out as above but the aliquots were injected onto a Partisphere SAX (110×4.7 mm) HPLC column and eluted isocratically (1 ml/min) with 75 mM NaH2 PO4.
The relative rates of reduction of various nitrobenzamides and
nitrobenzenes with E. coli nitroreductase enzyme. Reduction
rates were determined by the resulting oxidation of NADH. All
reactions were carried out at 37° C. in air, with NADH (500
electron donor, at an initial substrate concentration of 100 μM.

[2] = system: NC(=O)c1cc(N2CC2)c([N+](=O)[O-])cc1[N+](=O)[O-]; experiment: Enzyme kinetic and inhibition studies; type: biochemical, E. coli B
CC1=CC(=O)c2ccccc2C1=O = experiment: Enzyme kinetic and inhibition studies; type: biochemical, E. coli B
[3] = In vivo toxicity of prodrug in mice; conditions: for deaths: dose 10 mg/kg i.p., groups of 3 mice, 10 mg/kg
Protocol: The actinomycin D prodrug (AMDPD) of formula V was tested for toxicity in mice. Groups of 3 mice were given 1, 10 or 100 mg/kg body weight i.p. of AMPD, and two further groups of 3 mice were given 1 and 10 mg/kg body weight i.p. of actinomycin D (AMD) dissolved in arachis oil. A further group of 3 mice were untreated, and a final group of 3 mice were given arachis oil i.p. only.
The body weight of the mice were monitored over 9 days. All mice treated with 10 mg/kg of AMD were dead by day 1. […] In practice, the toxicity of AMDPD is likely to be even lower, since the preparation of AMDPD used contains about 1% unconverted AMD.

E. coli B nitroreductase [4] = molecular target: T2, E. coli B nitroreductase (Escherichia coli, UniProt P38489); experiment: Enzyme kinetic and inhibition studies; type: biochemical
T2 construct: endogenous in cells; host or cells: E. coli B cell paste; endogenous enzyme purified by Phenyl-Sepharose and Q-Sepharose chromatography, not recombinant
Protocol: Protein concentration was determined using the a conventional protein assay (Bio-Rad) calibrated against bovine serum albumin.

V79 cells [5] = experiment: Survival (colony forming ability) of V79 cells with enzyme-activated prodrugs (Table 8); type: cell-based
Protocol: (§1) Generation of cytotoxicity by the action of the E. coli nitroreductase of Example 1 upon the prodrugs 4-[bis(2-chloroethyl)amino]phenylcarbamic acid 4'-nitrobenzyl ester (I where R^1 NH2 =III) and N-4-nitrobenzyloxy-carbonyl-actinomycin D (V) are shown in Table 8.
(§2) The effect of enzyme-activated prodrugs on the survival of V79
(§3) cells. 1 ml volumes of V79 cells (2 × 10^5 /ml) were incubated
(§4) with prodrug, 500 μM NADH, and 10 μg/ml enzyme. After a 2 hour
(§5) incubation at 37° C., the cells were harvested and assayed for
(§6) their colony forming ability, and the supernatant assayed for
(§7) the concentration of remaining prodrug by HPLC.

E. coli nitroreductase [6] = molecular target: T1, E. coli nitroreductase; experiment: % drug reduction in the V79 incubations, remaining prodrug by HPLC (Table 8); type: biochemical
Protocol: as §1, §2, §3, §4, §5, §6, §7

MAWI cells = experiment: Survival (colony forming ability) of MAWI cells with enzyme-activated prodrugs (Table 7); type: cell-based, human
Protocol: (§8) The effect of enzyme-activated prodrugs on the survival of MAWI
(§9) cells. 1 ml volumes of MAWI cells (2 × 10^5 /ml) were
(§10) with 50 μM prodrug, 500 μM NADH, and 10 μg/ml the enzyme of
(§11) Example 1. After a 2 hour incubation at 37° C., the cells were
(§12) harvested and assayed for their colony forming ability, and the
(§13) supernatant assayed for the concentration of remaining prodrug

E. coli B nitroreductase [7] = molecular target: T2, E. coli B nitroreductase; experiment: % drug reduction in the MAWI incubations, remaining prodrug by HPLC (Table 7); type: biochemical
Protocol: as §8, §9, §10, §11, §12, §13

V79 cells [8] = experiment: Survival (colony-forming ability) of V79 cells treated with CB 1954 in the presence of E. coli B nitroreductase (Table 4); type: cell-based, Hamster; conditions: nitroreductase 2 μg/ml
Protocol: E. coli B nitroreductase. All treatments were for 2 hours at 37°
cells were then plated out for their resulting colony-forming ability.
nitroreductase concentration was 2 μg/ml and NADH was used as a […]

Enzyme kinetic studies [9] = substrate: CC1=CC(=O)c2ccccc2C1=O; experiment: Enzyme kinetic studies; type: biochemical
Protocol: (§14) Quinone reductase activities were assayed by a spectrophotometric method using menadione as a substrate and cytochrome c as a terminal electron acceptor as described in Knox et al, Biochem. Pharmacol., 37, 4671-4677, 1988. Initial rates of reaction were determined by linear regression analysis (r>0.995) and kinetic parameters determined from the resulting plots as described by Roberts et al, Biochem. Pharmacol. 38, 4137-4143, 1989. Protein concentration was determined using the a conventional protein assay (Bio-Rad) calibrated against bovine serum albumin.
(§15) Kinetic parameters for the E. coli nitroreductase and Walker NAD(P)H, dehydrogenase (quinone) EC. […] The absolute rates of reduction of CB 1954 (i.e. under saturating conditions) by the two enzymes is their kcat values and this is 90 fold higher for the E. coli nitroreductase.

Enzyme kinetic studies [10] = substrate: NC(=O)c1cc(N2CC2)c([N+](=O)[O-])cc1[N+](=O)[O-]; experiment: Enzyme kinetic studies; type: biochemical
Protocol: as §14, §15

[11] = NR + prodrug + NADH, prodrug concentration not given
[12] = NR 10 μg/ml + 50 μM prodrug + 500 μM NADH

## NC(=O)c1cc([N+](=O)[O-])cc([N+](=O)[O-])c1 [3,5-dinitrobenzamide]
E. coli nitroreductase [1]
  RELATIVE RATE OF NADH OXIDATION NR: 75.5

## E. coli B nitroreductase (Escherichia coli K-12)
[2]
  Km: 862 ± 145 µM
CC1=CC(=O)c2ccccc2C1=O
  Km: 80 µM

## NC(=O)c1cc(N2CC2)c([N+](=O)[O-])cc1N [2-amino-5-(aziridin-1-yl)-4-nitrobenzamide]
E. coli nitroreductase [1]
  RELATIVE RATE OF NADH OXIDATION NR: < 0.01

## Cc1c2oc3c(C)ccc(C(=O)N[C@@H]4C(=O)N[C@H](C(C)C)C(=O)N5CCC[C@H]5C(=O)N(C)CC(=O)N(C)[C@@H](C(C)C)C(=O)O[C@@H]4C)c3nc-2c(C(=O)N[C@@H]2C(=O)N[C@H](C(C)C)C(=O)N3CCC[C@H]3C(=O)N(C)CC(=O)N(C)[C@@H](C(C)C)C(=O)O[C@@H]2C)c(N)c1=O [AMD, actinomycin D] (I: T[dV]P[Sar][NMeV] / II: T[dV]P[Sar][NMeV]; ester I:1-I:C, II:1-II:C; linker I:N-II:N via Actinocin(9to1))
[3]; dose 1.0 mg/kg i.p., mice
  Weight as % of Day 0, Day 2: 98.6%
  Weight as % of Day 0, Day 3: 95%
  Weight as % of Day 0, Day 7: 101.6%
  Weight as % of Day 0, Day 9: 103%
[3]
  deaths: dead by day 1
[3]; listed as Active Drug
  deaths: All dead on day 1

## NC(=O)c1ccc([N+](=O)[O-])cc1 [4-nitrobenzamide]
E. coli nitroreductase [1]
  RELATIVE RATE OF NADH OXIDATION NR: 5.1

## NC(=O)c1cc(Cl)c([N+](=O)[O-])cc1[N+](=O)[O-] [5-chloro-2,4-dinitrobenzamide]
E. coli nitroreductase [1]
  RELATIVE RATE OF NADH OXIDATION NR: 22.4

## CC1=CC(=O)c2ccccc2C1=O [MENADIONE, menadione]
E. coli B nitroreductase [4]
  Km of nitroreductase for menadione higher than Walker enzyme: 60 fold

## NC(=O)c1cc(NCCO)c([N+](=O)[O-])cc1[N+](=O)[O-] [2,4-dinitro-5-(2-hydroxyethylamino)benzamide]
E. coli nitroreductase [1]
  RELATIVE RATE OF NADH OXIDATION NR: 0.04

## NC(=O)NN=Cc1ccc([N+](=O)[O-])o1 [5-nitro-2-furaldehydesemicarbazone]
E. coli nitroreductase [1]
  RELATIVE RATE OF NADH OXIDATION NR: 3.6

## NC(=O)c1ccccc1[N+](=O)[O-] [2-nitrobenzamide]
E. coli nitroreductase [1]
  RELATIVE RATE OF NADH OXIDATION NR: 0.06

## CN(C)C(=O)c1cc(N2CC2)c([N+](=O)[O-])cc1[N+](=O)[O-] [CB 10-107]
V79 cells [5]; [11]
  % SURVIVAL: 5.0%
E. coli nitroreductase [6]; [11]
  % DRUG REDUCTION: 45%
MAWI cells; 50 μM prodrug alone, 2 hour 37° C.
  % SURVIVAL: 85.6%
MAWI cells; NADH + prodrug, no enzyme
  % SURVIVAL: 87.9%
MAWI cells; [12]
  % SURVIVAL: 5.0%
E. coli B nitroreductase [7]; 50 μM prodrug alone
  % DRUG REDUCTION: < 1.0%
E. coli B nitroreductase [7]; NADH + prodrug, no enzyme
  % DRUG REDUCTION: < 1.0%
E. coli B nitroreductase [7]; [12]
  % DRUG REDUCTION: 45%

## O=[N+]([O-])c1ccc(O)c([N+](=O)[O-])c1 [2,4-dinitrophenol]
E. coli nitroreductase [1]
  RELATIVE RATE OF NADH OXIDATION NR: < 0.01

## O=C(Nc1ccc(N(CCCl)CCCl)cc1)OCc1ccc([N+](=O)[O-])cc1 [I where R^1 NH2 = III, 4-[Bis(2-chloroethyl)amino]phenylcarbamic acid 4'-nitrobenzyl ester]
V79 cells [5]; 50 μM prodrug alone
  % SURVIVAL: 27.1%
E. coli nitroreductase [6]; 50 μM prodrug alone
  % DRUG REDUCTION: < 1.0%
E. coli nitroreductase [6]; [12]
  % DRUG REDUCTION: 30%

## NC(=O)c1cccc([N+](=O)[O-])c1 [3-nitrobenzamide]
E. coli nitroreductase [1]
  RELATIVE RATE OF NADH OXIDATION NR: 1.8

B1: Nitroreductase (NR): flavoprotein nitroreductase isolated from E. coli B, molecular weight 24 kDa, FMN coenzyme (protein, UniProt P38489 1-217, looked up)
Oxygen-insensitive NAD(P)H …: MDIISVALKRHSTKAFDASKKLTPEQAEQIKTLLQYSPSSTNSQPWHFIVASTEEGKARVAKSAAGNYVFNERKMLDASHVVVFCAKTAMDDVWLKLVVDQEDADGRFATPEAKAANDKGRKFFADMHRKDLHDDAEWMAKQVYLNVGNFLLGVAALGLDAVPIEGFDAAILDAEFGLKEKGYTSLVVVPVGHHSVEDFNATLPKSRLPQNITLTEV
V79 cells [8]
  % SURVIVAL: 94%

B2: Walker NAD(P)H dehydrogenase (quinone) EC. 1.6.99.2 (Rattus norvegicus) (protein)
chain: AVRRALIVLAHAERTSFNYAMKEAAVEALKKKGWEVVESDLYAMNFNPLISRNDITGEPKDSENFQYPVESSLAYKEGRLSPDIVAEQKKLEAADLVIFQFPLYWFGVPAILKGWFERVLVAGFAYTYATMYDKGPFQNKKTLLSITTGGSGSMYSLQGVHGDMNVILWPIQSGILRFCGFQVLEPQLVYSIGHTPPDARVQVLEGWKKRLETVWEESPLYFAPSSLFDLNFQAGFLLKKEVQEEQKKNKFGLSVGHHLGKSIPADNQIKARK
notes: the enzyme isolated from the Walker tumour, EC.1.6.99.2; from tissue; host or cells: Walker tumour (Walker cell)
Enzyme kinetic studies [9]
  Km: 1.3 µM
Enzyme kinetic studies [10]
  Km: 826 ± 46 µM
